Data on one compound can be found in PMC12084410, “Reconstruction of the ancient cyanobacterial proto-circadian clock system KaiABC” (The EMBO Journal, 2025).

In assay [1] the target is T1, KaiC (Synechococcus elongatus, UniProt Q79PF4, S229T/T240N).
T1 construct: full-length (CI 1-268, CII 269-519), pGEX-6P-1 (GST) in E. coli BL21, purified, hexamer
Nature of the assay: HPLC ADP production (ATPase). The assay is classed as biochemical. As to conditions: 1 mM ATP, 5 mM MgCl2, 150 mM NaCl, pH 8.0, 25 C.

The target of assay [2] is T2, KaiC (Synechococcus elongatus, UniProt Q79PF4).
T2 construct: full-length (CI 1-268, CII 269-519), pGEX-6P-1 (GST) in E. coli BL21, purified, hexamer
T2 sequence (Q79PF4 1-519): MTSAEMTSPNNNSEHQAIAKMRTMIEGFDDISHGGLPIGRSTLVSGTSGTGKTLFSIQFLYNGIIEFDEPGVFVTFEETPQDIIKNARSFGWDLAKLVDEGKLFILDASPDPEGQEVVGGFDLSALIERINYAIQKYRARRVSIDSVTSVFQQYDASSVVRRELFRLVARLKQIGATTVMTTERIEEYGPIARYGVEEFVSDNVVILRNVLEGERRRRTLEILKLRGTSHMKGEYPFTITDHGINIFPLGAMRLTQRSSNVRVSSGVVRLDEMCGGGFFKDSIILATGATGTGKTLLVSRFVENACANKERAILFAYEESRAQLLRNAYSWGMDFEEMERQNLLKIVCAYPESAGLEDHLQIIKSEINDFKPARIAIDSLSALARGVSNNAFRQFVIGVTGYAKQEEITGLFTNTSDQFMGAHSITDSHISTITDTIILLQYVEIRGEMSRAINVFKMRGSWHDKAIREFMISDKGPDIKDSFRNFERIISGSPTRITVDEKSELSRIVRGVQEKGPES
Nature of the assay: HPLC ADP production (ATPase). The assay is classed as biochemical. Particulars: 1 mM ATP, 5 mM MgCl2, 150 mM NaCl, pH 8.0, 25 C.

Structures are written as SMILES.

T1 sequence (Q79PF4 whole entry S229T/T240N): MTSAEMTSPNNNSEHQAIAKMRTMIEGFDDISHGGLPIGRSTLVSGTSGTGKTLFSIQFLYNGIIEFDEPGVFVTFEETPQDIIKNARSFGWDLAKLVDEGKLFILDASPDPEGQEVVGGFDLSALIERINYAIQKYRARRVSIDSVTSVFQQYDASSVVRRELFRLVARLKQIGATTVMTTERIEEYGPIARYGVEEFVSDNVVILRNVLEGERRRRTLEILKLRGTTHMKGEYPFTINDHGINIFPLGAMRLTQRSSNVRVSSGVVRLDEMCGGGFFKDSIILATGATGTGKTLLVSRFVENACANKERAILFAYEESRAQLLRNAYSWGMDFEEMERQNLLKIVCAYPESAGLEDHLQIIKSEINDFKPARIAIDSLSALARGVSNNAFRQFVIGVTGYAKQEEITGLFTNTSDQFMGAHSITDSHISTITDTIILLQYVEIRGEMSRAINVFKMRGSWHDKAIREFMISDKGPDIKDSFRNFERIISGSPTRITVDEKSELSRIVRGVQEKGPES

Turning to `Nc1ncnc2c1ncn2[C@@H]1O[C@H](COP(=O)(O)OP(=O)(O)OP(=O)(O)O)[C@@H](O)[C@H]1O` [ATP], the “HPLC ADP production (ATPase)” value is on record as “the activity of ATP hydrolysis was significantly repressed in the double mutants” at KaiC [1] and “ATPase activity of anKaiC was significantly lower than that of KaiC” at KaiC [2].
